Tested on: CD-1 mice
Assay: Model of scratching induced by histamine in CD-1 mice (assessment of H4 antagonism)
Assay type: in vivo
Details: 30 mg/kg oral gavage 30 min before i.d. histamine; bouts counted for 20 minutes; female CD-1 mice
Description: Assessment of H4 Antagonism—Model of Scratching Induced by Histamine in CD-1 mice.
Female CD-1 mice (Charles River, Hollister, Calif.), approximately 10 weeks old were housed under controlled conditions (12 h light: 12 h dark, 21° C.) and allowed ad libitum access to food (Purina LabDiet 5P14) and water. Animals were deprived of access to food and water for 1 hour during the experimental itch protocol. All studies were performed under the guidelines of the Institutional Animal Care and Use Committee of Kalypsys, Inc.
At least 24 hours prior to study initiation, the hair on the rostral dorsum of the animal was clipped to clear a location for intradermal (i.d.) injection of pruritogen (histamine, dissolved in Dulbecco's PBS [pH 7.4] at a concentration of 10 μmol per 20 μL). Animals were dosed by oral gavage with vehicle (9/0.5/0.5/90 PEG-400/Tween-80/PVP-K30/1% carboxymethylcellulose in water) or test compounds (formulated as suspensions in vehicle) at 30 mg/kg in 200 μL by means of a 20 gauge 1.5″ feeding needle affixed to a 1 mL syringe. There were 8 mice per study group. Thirty minutes after oral dosing, animals were injected i.d. with 20 μL of histamine. Immediately afterward animals were placed into individual sections of a standard acrylic cage for observation, which was recorded digitally for a 20 minute period by video cameras (Panasonic SDR-S70/PC) for later review.
Quantitation of induced itch was measured as described previously (Bell, J. K. et al., British Journal of Pharmacology, 142:374-380, 2004) by counting the number of scratching bouts per animal in the 20 minute period after i.d. injection. A scratching bout was defined as three rapid scratch movements of the hind paw in the area of the injection site. Activity with the fore paws was deemed to be grooming and not scratching, and thus was not counted. All data were analyzed using GraphPad Prism (San Diego, Calif.) software, and reported as mean percentage reduction in scratching bouts versus vehicle control. The significance of antagonist effect on agonist-induced itching was analyzed using the nonparametric Mann-Whitney test with P values <0.05 being designated as statistically significant.
Data reported as NT refers to the example having been not tested. It is expected that these compounds when tested will be active and will have utility similar to those that have been tested. In Table 2 below, entries with superscript “1” are statistically significant according to the criteria outlined in the protocol above. Entries with superscript “2” are examples that have been tested on two separate days and the results reported below are the mean of the two experiments

Compound | Scratching Bouts (% change from vehicle control)
CN1CCN(c2nc3ccc(Cl)cc3n3cnnc23)CC1 [Example 55, 8-chloro-4-(4-methylpiperazin-1-yl)-[1,2,4]triazolo[4,3-a]quinoxaline] | −65^1,2%
Clc1ccc2nc(N3CCNCC3)c3nncn3c2c1 [Example 57, 8-chloro-4-(piperazin-1-yl)-[1,2,4]triazolo[4,3-a]quinoxaline] | −66^1%
